Key:
CDK5/GST-p25 = target: T1, CDK5/GST-p25 (Homo sapiens, UniProt Q00535); assay: Inhibition of CDK5/GST-p25 kinase activity (ELISA with time-resolved fluorescence readout); format: biochemical; conditions: class symbols
T1 construct: The final construct, encoding for full-length human CDK5; made in house; host or cells: Sf21 insect cells (baculovirus co-infection)
Experimental: Two recombinant baculoviral constructs were created, one encoding for human CDK5 and the other encoding for human p25 with an amino-terminal glutathione-S-transferase (GST) tag. PCR amplification of full-length CDK5 was performed utilizing human brain cDNA as a template and Pfu Turbo polymerase (Strategene). The PCR product from this reaction was subcloned into the baculoviral expression vector pFASTBAC1 (Gibco/BRL). The final construct, encoding for full-length human CDK5 (base pairs 25-903 of GenBank Accession #NM_004935), is 292 amino acids long with a predicted MW of 33.3 kDa.
For p25, the active truncated form of p35, amino acids 108-307 were PCR-amplified from human fetal brain cDNA (Clontech QUICK-Clone cDNA) using the Advantage 2 PCR system (Clontech). The PCR product was subcloned into the baculoviral transfer vector pFBGSTP (an engineered derivative of the baculoviral transfer vector pFASTBAC1). The final baculoviral construct encodes for base pairs 419-1021 of GenBank Accession #NM_003885, with an amino-terminal GST tag. The expressed GST-p25 is 444 amino acids long with a predicted MW of 50.3 kDa.
The CDK5/GST-p25 complex was generated by coexpression. Sf21 cells were cultured in TNM-FHS media at a density of 1.5×10^6 cells/mL and infected with each recombinant virus at MOI values of 5 (for CDK5) and 10 (for GST-p25). The cells were harvested 40 h after infection. For purification, the 100,000×g supernatant solution was used. Expression was confirmed by running samples on SDS-PAGE, followed by immunoblot analysis utilizing antibodies against CDK5 (anti-CDK5 (268-283); Calbiochem #219449) and p35 (Santa Cruz #sc820). The CDK5/GST-p25 complex was purified by glutathione affinity chromatography.
Compounds were tested for their ability to inhibit the kinase activity of recombinant baculoviral CDK5/GST-p25 using an enzyme-linked immunosorbent assay (ELISA) with time-resolved fluorescence (TRF) readout. Briefly, each 384-well FluoroNunc Maxisorp plate (Cat # 460372) plate was coated with 50 μl/well of 50 μg/ml substrate solution (recombinant GST-Rb(773-928)) in Tris-buffered saline (TBS). The CDK5/GST-p25 assay mixture (total volume=50 μl/well) consisting of 20 mM HEPES (pH 7.2), 10 μM ATP, 10 mM MgCl2, 5 mM EGTA, 25 mM β-glycerophosphate, 0.05% BSA, 2.5% DMSO, and various concentrations of test compound were then added to the assay plate. Enzyme (2 ng/ml CDK5/GST-p25) was added and the reaction was allowed to proceed at 37° C. for 20 minutes. Detection of the phosphorylated product was performed by adding 50 μl/well of phospho-Rb (Ser-780) antibody (Cell Signaling # 9307) diluted 1:10,000 in antibody dilution buffer (0.1% BSA in TBST). After 1-hour incubation at 37° C., 50 μl/well of Eu-Nl labelled anti-rabbit antibody (Wallac # AD0105; 1:50,000 in antibody dilution buffer) was added. Incubation at 37° C. then proceeded for 1 hour, followed by addition of 50 μl enhancement solution (Wallac #1244-105). The plate was gently agitated and after a few minutes, the fluorescence of the resulting solution was measured using a Multilabel Reader (Victor2 Model # 1420-018 or Envision Model # 2100). Inhibition data were analyzed using ActivityBase and IC50 curves were generated using XLFit 3.0.5.

His6-GSK-3β = target: T2, His6-GSK-3β (Homo sapiens, UniProt P49841); assay: Inhibition of His6-GSK-3β kinase activity (ELISA-based format, time-resolved fluorescence readout); format: biochemical; conditions: class symbols; read-out: GSK3β IC50
T2 construct: made in house; host or cells: Sf21 insect cells (baculovirus)
From the text: Full-length GSK-3β was amplified from a sequence-verified I.M.A.G.E. EST acquired from Research Genetics (Invitrogen, Clone ID# CSODB003YJ02). The final sequence-verified cDNA contained the coding region for a NH2-terminal tag, which encoded for 6 histidines and then eight vector-encoded amino acids prior to the start of GSK3β, which contained by # 43-1342 of Genbank Accession # NM_002093, encoding amino acids #2-419. The predicted molecular weight of the tagged, 435 amino acid, full-length protein is 48.5 kDa. The major structural element of this protein is the kinase domain, which is from amino acids #56-340. Recombinant baculoviral DNA was prepared by transposition in E. coli (BAC-TO-BAC system: Invitrogen) and the virus generated and amplified in Sf21 insect cells. A suspension culture of Sf21 cells was infected at an MOI of 0.7 and cell density of 1.5×10^6 cells/mL in Excell 420 serum-free media (JRH BioScience) and harvested 65 h after infection. The 100,000×g supernatant solution was used for purification. Expression was confirmed by running samples on SDS-PAGE, followed by immunoblot analysis utilizing both a Penta-HIS antibody (Qiagen #34660) and a GSK-3α/GSK-3β antibody (Calbiochem #368662, data not shown). The His6-tagged protein was purified to in one step by Ni-NTA affinity chromatography.
Inhibitory effects of compounds on baculoviral GSK-3β kinase activity were evaluated using an ELISA-based format in a 384-well FluoroNunc Maxisorp plate (Cat # 460372) with a time-resolved fluorescence readout. Briefly, each plate was coated with 50 μl/well of 20 μg/ml substrate solution (recombinant GST-Rb) in Tris-buffered saline (TBS). The GSK-3β assay mixture (total volume=50 μl/well) consisting of 50 mM HEPES (pH 7.2), 20 μM ATP, 10 mM MgCl2, 5 mM EGTA, 25 mM β-glycerophosphate, 0.05% BSA, 2.5% DMSO, and various concentrations of test compound were then added to the assay plate. Enzyme (200 ng/ml His6-GSK-3β) was then added and the reaction was allowed to proceed at 37° C. for 30 minutes. Detection of the phosphorylated product was performed by adding 50 μl/well of phospho-Rb (Ser-780) antibody (Cell Signaling # 9307) diluted 1:10,000 in antibody dilution buffer (0.1% BSA in TBST). After 1-hour incubation at 37° C., 50 μl/well of Eu-N1 labelled anti-rabbit antibody (Wallac # AD0105; 1:50,000 in antibody dilution buffer) was added. Incubation at 37° C. then proceeded for 1 hour, followed by addition of 50 μl enhancement solution (Wallac #1244-105). The plate was gently agitated and after a few minutes, the fluorescence of the resulting solution was measured using a Multilabel Reader (Victor2 Model # 1420-018 or Envision Model 2100). Inhibition data were analyzed using ActivityBase and IC50 curves were generated using XLFit 3.0.5.

T1 sequence (Q00535 whole entry): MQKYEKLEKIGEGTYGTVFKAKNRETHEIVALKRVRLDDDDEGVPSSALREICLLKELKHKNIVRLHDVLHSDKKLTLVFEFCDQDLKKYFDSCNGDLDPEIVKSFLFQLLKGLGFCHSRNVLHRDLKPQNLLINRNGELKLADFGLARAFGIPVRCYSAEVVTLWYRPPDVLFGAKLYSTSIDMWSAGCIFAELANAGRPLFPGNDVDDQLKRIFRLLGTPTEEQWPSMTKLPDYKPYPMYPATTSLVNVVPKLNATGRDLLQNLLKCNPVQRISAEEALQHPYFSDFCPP
T1 sequence (Q15078 108-307 partner limits assumed): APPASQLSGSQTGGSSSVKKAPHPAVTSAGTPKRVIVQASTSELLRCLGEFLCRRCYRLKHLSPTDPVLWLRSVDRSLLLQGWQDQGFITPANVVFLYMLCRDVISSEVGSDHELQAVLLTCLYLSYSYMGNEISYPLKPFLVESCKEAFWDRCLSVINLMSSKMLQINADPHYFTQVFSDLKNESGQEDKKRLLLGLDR
T2 sequence (P49841 2-419): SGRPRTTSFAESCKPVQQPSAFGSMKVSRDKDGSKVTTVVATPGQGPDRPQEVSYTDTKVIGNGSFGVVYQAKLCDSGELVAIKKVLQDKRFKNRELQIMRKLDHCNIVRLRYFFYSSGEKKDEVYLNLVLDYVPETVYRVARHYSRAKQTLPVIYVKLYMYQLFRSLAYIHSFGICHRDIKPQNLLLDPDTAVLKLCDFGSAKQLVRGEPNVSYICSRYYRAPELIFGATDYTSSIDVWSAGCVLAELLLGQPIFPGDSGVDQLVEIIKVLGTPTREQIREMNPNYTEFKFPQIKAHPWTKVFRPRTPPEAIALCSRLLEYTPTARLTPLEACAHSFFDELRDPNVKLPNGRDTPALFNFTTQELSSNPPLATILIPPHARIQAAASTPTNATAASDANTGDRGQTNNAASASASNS

Row | Molecule | IC50 (CDK5/GST-p25) [nM] | IC50 (His6-GSK-3β) [nM]
1 | 5-Chloro-3-[2-cyclopentyl-6-(2-diethylamino-ethoxy)-2H-pyrazolo [3,4-d]pyrimidin-4-yl]-1,3-dihydro-indol-2-one [Example 141] | > 10000 | < 300
2 | O=C1Nc2ccc([N+](=O)[O-])cc2C1c1ncnc2nn(C3CCCC3)cc12 (centres unmarked) [Example 33, 3-(2-Cyclopentyl-2H-pyrazolo[3,4-d]pyrimidin-4-yl)-5-nitro-1,3-dihydro-indol-2-one] | < 300 | < 300
3 | N#Cc1ccc2c(c1)C(c1ncnc3nn(C4CCCCC4)cc13)C(=O)N2 (centres unmarked) [Example 45, 3-(2-Cyclohexyl-2H-pyrazolo [3,4-d]pyrimidin-4-yl)-2-oxo-2,3-dihydro-1H-indole-5-carbonitrile] | < 300 | < 300
4 | COc1ccc2c(c1)C(c1ncnc3nn(C4CCCCC4)cc13)C(=O)N2 (centres unmarked) [Example 52, 3-(2-Cyclohexyl-2H-pyrazolo[3,4-d]pyrimidin-4-yl)-5-methoxy-1,3-dihydro-indol-2-one] | 300 to 3000 | 300 to 3000
5 | Cn1cc2c(C3C(=O)Nc4ccc(Cl)cc43)ncnc2n1 (centres unmarked) [Example 83, 5-Chloro-3-(2-methyl-2H-pyrazolo[3,4-d]pyrimidin-4-yl)-1,3-dihydro-indol-2-one] | < 300 | 300 to 3000
6 | CNCCCn1cc2c(C3C(=O)Nc4ccc(Br)cc43)ncnc2n1 (centres unmarked) [Example 90, 3-[2-(3-methylamino-propyl)-2H-pyrazolo[3,4-d]pyrimidin-4-yl]-5-bromo-1,3-dihydro-indol-2-one] | < 300 | 300 to 3000
7 | N#Cc1ccc2c(c1)C(c1nc(Cl)nc3nn(C4CCCC4)cc13)C(=O)N2 (centres unmarked) [Example 113, 3-(6-Chloro-2-cyclopentyl-2H-pyrazolo[3,4-d]pyrimidin-4-yl)-2-oxo-2,3-dihydro-1H-indole-5-carbonitrile] | > 10000 | < 300
8 | N#Cc1ccc2c(c1)C(c1nc(NCCc3cccnc3)nc3nn(C4CCCC4)cc13)C(=O)N2 (centres unmarked) [Example 114, 3-(2-cyclopentyl-6-(2-pyridin-3-yl-ethylamino)-2H-pyrazolo[3,4-d]pyrimidin-4-yl)-2-oxo-2,3-dihydro-1H-indole-5-carbonitrile] | < 300 | < 300
9 | CNc1nc(C2C(=O)Nc3ccc(C#N)cc32)c2cn(C3CCCC3)nc2n1 (centres unmarked) [Example 115, 3-(2-cyclopentyl-6-methylamino-2H-pyrazolo[3,4-d]pyrimidin-4-yl)-2-oxo-2,3-dihydro-1H-indole-5-carbonitrile] | < 300 | < 300
10 | CCCCNc1nc(C2C(=O)Nc3ccc(C#N)cc32)c2cn(C3CCCC3)nc2n1 (centres unmarked) [Example 116, 3-(6-butylamino-2-cyclopentyl-2H-pyrazolo [3,4-d]pyrimidin-4-yl)-2-oxo-2,3-dihydro-1H-indole-5-carbonitrile] | – | < 300
11 | CN1CCN(c2nc(C3C(=O)Nc4ccc(C#N)cc43)c3cn(C4CCCC4)nc3n2)CC1 (centres unmarked) [Example 117, 3-(2-cyclopentyl-6-(4-methyl-piperazin-1-yl)-2H-pyrazolo[3,4-d]pyrimidin-4-yl)-2-oxo-2,3-dihydro-1H-indole-5-carbonitrile] | 3000 to 10000 | < 300
12 | N#Cc1ccc2c(c1)C(c1nc(N3CCOCC3)nc3nn(C4CCCC4)cc13)C(=O)N2 (centres unmarked) [Example 118, 3-(2-cyclopentyl-6-morpholin-4-yl-2H-pyrazolo[3,4-d]pyrimidin-4-yl)-2-oxo-2,3-dihydro-1H-indole-5-carbonitrile] | 300 to 3000 | < 300
13 | CN(C)CCNc1nc(C2C(=O)Nc3ccc(C#N)cc32)c2cn(C3CCCC3)nc2n1 (centres unmarked) [Example 119, 3-(2-cyclopentyl-6-(2-dimethylamino-ethylamino)-2H-pyrazolo [3,4-d]pyrimidin-4-yl)-2-oxo-2,3-dihydro-1H-indole-5-carbonitrile] | 300 to 3000 | < 300
14 | N#Cc1ccc2c(c1)C(c1nc(O)nc3nn(C4CCCC4)cc13)C(=O)N2 (centres unmarked) [Example 120, 3-(2-cyclopentyl-6-hydroxy-2H-pyrazolo [3,4-d]pyrimidin-4-yl)-2-oxo-2,3-dihydro-1H-indole-5-carbonitrile] | > 10000 | < 300
15 | CCN(CC)CCN(C)c1nc(C2C(=O)Nc3ccc(C#N)cc32)c2cn(C3CCCC3)nc2n1 (centres unmarked) [Example 121, 3-{2-cyclopentyl-6-[(2-diethylamino-ethyl)-methyl-amino]-2H-pyrazolo [3,4-d]pyrimidin-4-yl}-2-oxo-2,3-dihydro-1H-indole-5-carbonitrile] | > 10000 | < 300
16 | CN(C)CCOc1nc(C2C(=O)Nc3ccc(C#N)cc32)c2cn(C3CCCC3)nc2n1 (centres unmarked) [Example 122, 3-[2-cyclopentyl-6-(2-dimethylamino-ethoxy)-2H-pyrazolo[3,4-d]pyrimidin-4-yl]-2-oxo-2,3-dihydro-1H-indole-5-carbonitrile] | > 10000 | < 300
17 | N#Cc1ccc2c(c1)C(c1nc(NCc3ccccn3)nc3nn(C4CCCC4)cc13)C(=O)N2 (centres unmarked) [Example 123, 3-{2-cyclopentyl-6-[(pyridin-2-yl-methyl)amino]-2H-pyrazolo[3,4-d]pyrimidin-4-yl}-2-oxo-2,3-dihydro-1H-indole-5-carbonitrile] | < 300 | < 300
18 | N#Cc1ccc2c(c1)C(c1nc(NN)nc3nn(C4CCCC4)cc13)C(=O)N2 (centres unmarked) [Example 124, 3-(2-cyclopentyl-6-hydrazino-2H-pyrazolo [3,4-d]pyrimidin-4-yl)-2-oxo-2,3-dihydro-1H-indole-5-carbonitrile] | 300 to 3000 | < 300
